Read-outs that look alike come from different tables or passages of the source.
What was measured:
[1] = molecular target: T1, eqBuChE (Equus caballus, UniProt P81908); test: biochemical; conditions: means±SEM of at least three experiments
T1 construct: purchased Sigma-Aldrich

[2] = molecular target: T2, human butyrylcholinesterase (hBuChE) (Homo sapiens, UniProt P06276); test: biochemical; conditions: means±SEM of at least three experiments
T2 construct: from human plasma was from Vivonics (Bedford, MA, USA); purchased Vivonics (Bedford, MA, USA); host or cells: human plasma

[3] = molecular target: T3, mGAT3 (Mus musculus, UniProt P31649); test: [3H]GABA uptake assay, mGAT3; format: cell-based
T3 sequence (P31649 1-602): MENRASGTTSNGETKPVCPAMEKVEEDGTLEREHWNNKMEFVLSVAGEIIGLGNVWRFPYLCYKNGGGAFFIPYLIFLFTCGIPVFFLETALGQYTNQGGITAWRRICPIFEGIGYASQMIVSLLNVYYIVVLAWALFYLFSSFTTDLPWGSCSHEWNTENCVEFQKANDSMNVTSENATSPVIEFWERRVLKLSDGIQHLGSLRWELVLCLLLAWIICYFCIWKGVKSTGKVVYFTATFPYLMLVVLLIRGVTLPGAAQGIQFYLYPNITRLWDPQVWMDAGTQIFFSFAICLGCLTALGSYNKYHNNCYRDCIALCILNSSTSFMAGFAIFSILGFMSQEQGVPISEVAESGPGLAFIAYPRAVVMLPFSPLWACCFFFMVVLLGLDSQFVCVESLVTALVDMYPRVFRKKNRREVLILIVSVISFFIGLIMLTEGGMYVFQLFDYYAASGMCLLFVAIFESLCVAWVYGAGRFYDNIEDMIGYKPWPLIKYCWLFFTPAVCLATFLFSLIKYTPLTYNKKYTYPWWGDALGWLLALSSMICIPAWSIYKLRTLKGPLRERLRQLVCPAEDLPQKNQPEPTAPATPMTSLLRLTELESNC

[4] = molecular target: T4, human serotonin 5-HT1A receptor (Homo sapiens, UniProt P08908); test: cAMP 5-HT1A functional assay; format: cell-based
T4 construct: host or cells: CHO-K1
Method: Functional assays for 5-HT1A receptor
Tested and reference compounds were dissolved in DMSO to the concentration of 10 mM.
Dilutions were prepared in a 96-well microplate in assay buffers. For 5-HT1A receptors,
adenylyl cyclase activity was determined using cryopreserved CHO-K1 cells expressing the
The final concentration of DMSO in the test solutions was
The functional assay was performed with the CHO-K1 cells with expression of the 5-HT1A
The cells were cultured under selective conditions (400 μg/mL Geneticin G418)
(PerkinElmer). Thawed cells were resuspended in stimulation buffer (HBSS, 5 mM HEPES,
The same volume (10 μL) of cell
suspension was added to tested compounds with 10 μM forskolin. Samples were loaded onto
a white opaque half-area 96-well microplate. Cell stimulation was performed for 40 min at
room temperature. After incubation, cAMP measurements were performed with homogeneous
time-resolved fluorescence resonance energy transfer (TR-FRET) immunoassay using the
LANCE Ultra cAMP kit (PerkinElmer, USA). Ten microliters of EucAMP Tracer Working
Solution and 10 μL of ULight-anti-cAMP Tracer Working Solution were added, mixed, and
incubated for 1 h. The TR-FRET signal was read on an EnVision microplate reader
(PerkinElmer, USA). Emax values were defined as the ligand response expressed as a […]
which 50% of its maximal response was measured.

[5] = molecular target: T5, human serotonin 5-HT7 receptor (Homo sapiens, UniProt P34969); test: cAMP 5-HT7 functional assay; format: cell-based
T5 construct: host or cells: CHO-K1 (with CRE-bla reporter)
Method: Functional assays for 5-HT7 receptor
Test and reference compounds were dissolved in dimethyl sulfoxide (DMSO) at a
concentration of 10 mM. Serial dilutions were prepared in a 96-well microplate in assay
buffer, and 8 to 10 concentrations were tested. For the 5-HT7, adenylyl cyclase activity was
The functional assay was performed on cells expressing the human 5-
CHO-K1 cells were transfected with a beta-
lactamase (bla) reporter gene under the control of the cyclic AMP response element (CRE)
(Life Technologies). Thawed cells were resuspended in stimulation buffer (HBSS, 5 mM
HEPES, 0.5 IBMX, and 0.1% BSA at pH 7.4) at 2x10^5 cells/ml for 5-HT7 receptor. The same
volume (10 μl) of cell suspension was added to tested compounds for the 5 -HT7 receptor.
Samples were loaded onto a white opaque half-area 96-well microplate. The antagonist
The agonist and antagonist were added simultaneously. Cell stimulation was
performed for 1 h at room temperature. After incubation, cAMP measurements were
performed with homogeneous TR-FRET immunoassay using the LANCE Ultra cAMP kit
(PerkinElmer, USA). The volume of 10 μl of EucAMP Tracer Working Solution and 10 μl of
ULight-anti-cAMP Tracer Working Solution were added, mixed, and incubated for 1 h.
TR-FRET signal was read on an EnVision microplate reader (PerkinElmer, USA). IC50 and
EC50 were determined by nonlinear regression analysis using GraphPad Prism 9.0 software.

[6] = molecular target: T6, human serotonin 5-HT6 receptor (Homo sapiens, UniProt P50406); test: cAMP 5-HT6 functional assay; format: cell-based
T6 construct: host or cells: 1321N1
Method: Functional assays for 5-HT6 receptor
Test compounds were dissolved in dimethyl sulfoxide (DMSO) at a concentration of 10 mM.
Serial dilutions were prepared in a 96-well microplate in assay buffer, and 8 concentrations
were tested. For the 5-HT6, adenylyl cyclase activity was monitored using cryopreserved
cells were resuspended in stimulation buffer (HBSS, 5 mM HEPES, 0.5 IBMX, and 0.1%
BSA at pH 7.4) at 2x10^5 cells/ml. The same volume (10 μl) of cell suspension was added to
the tested compounds. Samples were loaded onto a white opaque half-area 96-well
reference agonist for the 5-HT6 receptor. The agonist and antagonist were added
simultaneously. Cell stimulation was performed for 30 minutes at room temperature. After
incubation, cAMP measurements were performed with homogeneous TR-FRET immunoassay
using the LANCE Ultra cAMP kit (PerkinElmer, USA). The volume of 10 μl of EucAMP
Tracer Working Solution and 10 μl of ULight-anti-cAMP Tracer Working Solution were
added, mixed, and incubated for 1 h. The TR-FRET signal was read on an EnVision
microplate reader (PerkinElmer, USA). IC 50 and EC 50 were determined by nonlinear
regression analysis using GraphPad Prism 9.0 software.

[7] = system: SH-SY5Y cells; test: Intracellular O2•-, DHE probe, SH-SY5Y; format: cell-based, human
[8] = system: SH-SY5Y cells; test: LC-MS determination of total MDA, SH-SY5Y; format: cell-based, human; conditions: all time intervals
[9] = Pharmacokinetic study after i.g. administration; format: in vivo; conditions: mice
Method: Pharmacokinetic study after i.p. and i.g administration
mg/kg), blood samples were collected from mice under deep terminal anesthesia directly by cardiac puncture into heparinized 1.5 mL tubes at selected time intervals.
The samples were centrifuged at 3,000 × g for 10 min (10 °C), and the plasma samples were stored at -80 °C until the HPLC analysis.
The blood in brain vessels would interfere with the assay of actual brain tissue concentrations.
Therefore, the animals were perfused transcardially with saline solution (0.9% NaCl) for 5 min (10 mL/min). After perfusion, the skull was opened, and the brain was carefully removed and immediately stored at -80 °C until the HPLC analysis.
Before analysis, 50 μL of plasma or brain homogenate was precipitated with an internal
standard of 200 μL acetonitrile (ACN). The mixture was vortexed for 1 min at 1,500 rpm and
centrifuged at 12,074 g for 5 min at 20 °C. The supernatant was then transferred to an
injection vial and analyzed.
mm ID (Phenomenex, Torrance, CA, USA), protected with a guard column SecurityGuard
was performed in gradient elution mode with a flow rate of 0.6 mL/min and the following
composition of mobile phase: A) 0.1% FA in water (v/v) and B) 0.1% FA in ACN/MeOH in
The column was kept at 45 °C during
analysis. Samples were held at 10 °C in a light-tight autosampler unit.
Heated-Electrospray Ionization II interface (HESI-II) in positive ion mode was used with the
following settings: spray voltage; +3.5 kV, S-lens RF level; +70 V, capillary temperature 350
°C, auxiliary gas heater temperature; 350 °C, sheet, and auxiliary gas flow; 45 and 15
arbitrary units, respectively. Full MS mode was used at resolution (m/𝛥m) ̴70,000 for
Xcalibur software (v 4.0) was used for data evaluation.

[10] = Stability in plasma (UHPLC-MS method validation); format: in vitro ADME; conditions: rat plasma
Text: UHPLC-MS method for pharmacokinetics study
Ultra high-performance liquid chromatography system consisting of Ultimate 3000 RS pump Dionex (Thermo Scientific, San Jose, CA, USA) coupled with high-resolution mass spectrometer with orbitrap analyzer (Q Exactive Focus, Thermo Scientific, San Jose, CA, USA) was used in quantitative analyses of 6 in plasma and brain homogenate. According to the EMA[43] and FDA[42] guidelines on Bioanalytical method validation, the method was fully validated for plasma and partially for brain homogenate. All the evaluated parameters met the […]
Table S12. Summary of validation results (precision and accuracy) in plasma for five different concentrations - limit of quantitation(LLOQ), low (QC A), mid (QC B), high (QC C) a dilution (QC D) level. […]
Stability evaluation in rat plasma as deviation from the reference value (100%)

T6 sequence (P50406 whole entry): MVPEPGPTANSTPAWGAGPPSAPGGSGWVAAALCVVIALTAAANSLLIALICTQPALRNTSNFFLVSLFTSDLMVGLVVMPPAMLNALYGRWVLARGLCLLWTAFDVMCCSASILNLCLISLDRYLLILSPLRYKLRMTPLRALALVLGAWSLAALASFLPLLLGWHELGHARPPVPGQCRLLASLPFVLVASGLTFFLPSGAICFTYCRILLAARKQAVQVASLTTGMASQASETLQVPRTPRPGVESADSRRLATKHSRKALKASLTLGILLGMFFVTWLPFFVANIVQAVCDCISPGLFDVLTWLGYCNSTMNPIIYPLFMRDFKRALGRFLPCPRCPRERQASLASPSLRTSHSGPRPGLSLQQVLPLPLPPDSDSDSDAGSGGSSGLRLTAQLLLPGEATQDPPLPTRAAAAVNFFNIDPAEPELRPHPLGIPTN
T5 sequence (P34969 whole entry): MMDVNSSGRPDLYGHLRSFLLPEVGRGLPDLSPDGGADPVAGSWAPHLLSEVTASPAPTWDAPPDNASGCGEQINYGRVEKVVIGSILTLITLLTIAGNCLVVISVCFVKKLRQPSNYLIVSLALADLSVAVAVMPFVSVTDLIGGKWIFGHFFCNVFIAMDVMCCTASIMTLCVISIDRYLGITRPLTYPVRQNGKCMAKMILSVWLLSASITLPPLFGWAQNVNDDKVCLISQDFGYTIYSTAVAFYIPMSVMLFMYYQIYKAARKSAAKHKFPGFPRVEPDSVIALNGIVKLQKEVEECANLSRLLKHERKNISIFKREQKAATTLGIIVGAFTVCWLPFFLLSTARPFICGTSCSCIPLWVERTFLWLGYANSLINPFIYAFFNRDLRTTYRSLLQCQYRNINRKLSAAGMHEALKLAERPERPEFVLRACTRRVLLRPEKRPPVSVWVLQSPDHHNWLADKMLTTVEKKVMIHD
T4 sequence (P08908 whole entry): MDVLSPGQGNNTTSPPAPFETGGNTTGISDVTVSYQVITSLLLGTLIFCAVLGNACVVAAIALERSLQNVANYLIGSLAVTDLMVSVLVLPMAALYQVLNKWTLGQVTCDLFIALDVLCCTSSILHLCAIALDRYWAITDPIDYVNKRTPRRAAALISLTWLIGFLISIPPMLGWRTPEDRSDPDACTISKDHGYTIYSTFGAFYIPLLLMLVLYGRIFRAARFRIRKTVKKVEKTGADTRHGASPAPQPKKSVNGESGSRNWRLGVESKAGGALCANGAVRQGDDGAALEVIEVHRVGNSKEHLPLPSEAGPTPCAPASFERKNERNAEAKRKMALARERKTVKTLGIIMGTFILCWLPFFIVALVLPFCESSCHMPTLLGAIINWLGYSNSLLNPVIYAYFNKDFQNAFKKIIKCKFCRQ
T2 sequence (P06276 29-602): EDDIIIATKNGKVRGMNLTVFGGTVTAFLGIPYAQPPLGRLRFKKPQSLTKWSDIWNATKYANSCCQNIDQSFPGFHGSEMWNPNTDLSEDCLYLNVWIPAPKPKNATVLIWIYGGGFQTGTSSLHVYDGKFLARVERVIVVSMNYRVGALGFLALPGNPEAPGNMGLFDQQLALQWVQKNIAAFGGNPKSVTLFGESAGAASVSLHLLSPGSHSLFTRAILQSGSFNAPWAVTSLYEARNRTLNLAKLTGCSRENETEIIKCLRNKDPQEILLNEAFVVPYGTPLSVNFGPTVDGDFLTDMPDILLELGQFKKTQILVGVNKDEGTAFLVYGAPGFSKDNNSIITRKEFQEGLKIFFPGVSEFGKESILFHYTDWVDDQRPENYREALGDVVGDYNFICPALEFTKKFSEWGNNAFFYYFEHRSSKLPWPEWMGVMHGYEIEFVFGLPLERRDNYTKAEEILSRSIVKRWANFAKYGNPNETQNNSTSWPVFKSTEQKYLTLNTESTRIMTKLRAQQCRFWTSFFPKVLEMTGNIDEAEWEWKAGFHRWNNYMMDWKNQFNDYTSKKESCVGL
T1 sequence (P81908 whole entry): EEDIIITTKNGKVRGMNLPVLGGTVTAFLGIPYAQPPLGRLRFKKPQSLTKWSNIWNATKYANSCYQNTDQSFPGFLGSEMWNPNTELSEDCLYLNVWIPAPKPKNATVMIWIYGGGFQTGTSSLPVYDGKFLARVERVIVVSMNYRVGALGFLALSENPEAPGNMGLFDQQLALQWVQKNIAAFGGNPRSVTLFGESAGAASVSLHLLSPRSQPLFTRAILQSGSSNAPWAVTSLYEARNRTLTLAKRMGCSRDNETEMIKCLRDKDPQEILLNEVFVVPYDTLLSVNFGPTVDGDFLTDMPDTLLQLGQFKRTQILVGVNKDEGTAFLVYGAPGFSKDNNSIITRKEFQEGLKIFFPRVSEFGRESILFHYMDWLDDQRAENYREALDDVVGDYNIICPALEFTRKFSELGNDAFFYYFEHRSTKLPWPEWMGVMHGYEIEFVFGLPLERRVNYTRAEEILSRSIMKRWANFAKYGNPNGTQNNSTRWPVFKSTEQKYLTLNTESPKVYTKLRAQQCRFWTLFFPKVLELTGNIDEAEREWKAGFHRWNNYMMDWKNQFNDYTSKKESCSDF

O[C@H](CNCC1CC1)[C@H](Cc1ccccc1)NC1c2ccccc2-c2ccccc21 [Compound 6]
IC50 [1]: 310 ± 10 nM
IC50 [2]: 210 ± 10 nM
IC50 [3]: 7.41 ± 0.69 µM
Emax ([4]; read-out: 5-HT1A agonist mode E max % [10^-5 M]): 15%
Emax ([4]; read-out: 5-HT1A antagonist mode E max %): 16%
Emax ([5]; read-out: 5-HT7 agonist mode E max % [10^-5 M]): 8%
Emax ([5]; read-out: 5-HT7 antagonist mode E max %): 0%
EC50 [6]: 2420 nM
Emax ([6]; read-out: 5-HT6 agonist mode E max % [10^-5 M]): 41%
Emax ([6]; read-out: 5-HT6 antagonist mode E max %): 3%
increase in intracellular O2•- ([7]; all concentrations and times): No significant increase
decrease of O2•- level ([7]; conc. = IC50, 24 h): 15%
increase in intracellular level of MDA [8]: no significant increase
Kp ([9]; ICR-CD1, mouse, brain and plasma, po, 10 mg/kg, 10 mg/kg i.g., read-out: Kp (AUCbrain/AUCplasma), brain-to-plasma ratio): 1.98
Tmax ([9]; ICR-CD1, mouse, brain, po, 10 mg/kg, 10 mg/kg i.g., read-out: brain Tmax (converted)): 3.33 h
Cmax ([9]; ICR-CD1, mouse, plasma, po, 10 mg/kg, 10 mg/kg i.g.): 120 ± 30.7 ng/mL
half-life ([9]; ICR-CD1, mouse, plasma, po, 10 mg/kg, 10 mg/kg i.g., plasma, read-out: Half-life): 212 ± 27 min
Vd/F ([9]; ICR-CD1, mouse, plasma, po, 10 mg/kg, 10 mg/kg i.g., plasma, read-out: Vss/F): 120 ± 22.1 L/kg
Vd/F ([9]; ICR-CD1, mouse, plasma, po, 10 mg/kg, 10 mg/kg i.g., plasma, read-out: Vz/F): 102 ± 22.9 L/kg
Tmax ([9]; ICR-CD1, mouse, plasma, po, 10 mg/kg, 10 mg/kg i.g., read-out: plasma Tmax (converted)): 1.33 h
MRT ([9]; ICR-CD1, mouse, po, 10 mg/kg i.g., plasma): 6.08 h
k el ([9]; ICR-CD1, mouse, po, 10 mg/kg i.g., plasma, read-out: λz (converted)): 6e-05 s⁻¹
plasma AUCtotal i.g. as % of AUCtotal after i.p. administration of the same dose ([9]; 10 mg/kg): approximately 60%
brain AUCtotal ([9]; 10 mg/kg i.g.): 68,547.70 ± 9,216.46 min.ng/g
brain Cmax ([9]; 10 mg/kg i.g.): 158.63 ± 20.04 ng/g
plasma AUCtotal ([9]; 10 mg/kg i.g.): 34,630.80 ± 4,866.51 min.ng/mL
CL ([9]; 10 mg/kg i.g., plasma): 0.32 ± 0.05 L/min/kg
half-life ([9]; 10 mg/kg i.g., plasma, 10 mg/kg): 212 min
plasma Cmax ([9]; 10 mg/kg i.g., 10 mg/kg): 120 ng/mL
Autosampler stability % (24h) ([10]; QC B (33,50 ng/mL), vs reference value 100%): 97,6 ± 1,5%
Freeze-thaw stability % (3 cycles) ([10]; QC B): 95,8% ± 4,0
Long-term stability % (3 month) ([10]; QC B): 109,9 ± 0,5%
Autosampler stability % (24h) ([10]; QC C (452,73 ng/mL)): 94,6 ± 2,5%
Freeze-thaw stability % (3 cycles) ([10]; QC C): 102,0 ± 4,7%
Long-term stability % (3 month) ([10]; QC C): 105,7 ± 2,2%

— paper PMC11796312, “Multifunctional, Fluorene‐Based Modulator of Cholinergic and GABAergic Neurotransmission as a Novel Drug Candidate for Palliative Treatment of Alzheimer's Disease” (Angewandte Chemie (International Ed. in English), 2024)
